Measurements reported in patent US10864201B2, “Heteroaromatic compounds as Vanin inhibitors” (Boehringer Ingelheim International GmbH, priority 2018, dated 2020).

What was measured:
[1] = target: FLAG-tagged Vanin-1 (AA 22-493, T26I) (Homo sapiens (Human), UniProt O95497, T26I); test: Vanin-1 enzymatic assay; format: biochemical; details: formation of pantothenic acid from D-pantethine (3 μM), RapidFire MS; geometric mean in case of multiple measurements; read-out: VNN 1 IC50
Method: The test compounds are dissolved in 100% DMSO at a concentration of 10 mM and in a first step diluted in DMSO to a concentration of 5 mM, followed by serial dilution steps in 100% DMSO. Dilution factor and number of dilution steps may vary according to needs. Typically 8 different concentrations by 1:5 dilutions are prepared, a further intermediate dilutions of the substances is carried out with assay buffer resulting in 1% final DMSO concentration in the assay.
0.1 nM of FLAG-tagged Vanin-1 (AA 22-493, T26I, produced internally) and test compounds are incubated at room temperature for 20 minutes in assay buffer (1 mM DTT, 0.0025% Brij-35, 50 mM HEPES, pH7.5). D-Pantethine (Sigma, Cat #P2125-5G) in assay buffer is added (final concentration 3 μM) and incubated for additional 30 minutes at room temperature. Total assay volume typically is 40 μl but might be adjusted according to needs. Reaction is stopped by adding equal volume of stop solution as the reaction mixture to reach 100 nM HD-pantothenic acid (as an internal standard) and 1% TFA. Assay plates are centrifuged for 2 minutes and the formation of pantothenic acid is detected by RapidFire Mass Spectrometry (mobile phase A: 0.1% formic acid and 0.01% trifluoroacetic acid in water; mobile phase B: 47.5% acetonitrile, 47.5% methanol, 0.1% formic acid and 0.01% trifluoroacetic acid in water) using a C18, 12 μL cartridge (Agilent Cat #G9205A).
The values given in Table I result from measurements of one or more samples. In case of multiple measurements the geometric mean values are given.

Pantetheinase (vanin) = test: Human Whole Blood assay; format: cell-based; details: formation of pantothenic acid after pantethine supplementation, RapidFire MS, read-out: HWB IC50
Method: Human Whole Blood assay: Pantetheinase (vanin) converts panteheine into pantothenic acid and cysteamine. Accordingly, in the described protocol vanin activity is quantified by formation of pantothenic acid after pantetheine supplementation via pantethine. The assay is applicable to identify vanin inhibitors. Compound stocks were dissolved in DMSO at 10 mM. Further dilutions were performed in RPMI 1640 medium (Gibco, #A-10491-01) and final concentrations in the assay were 0.032 nM-500 nM.
Human blood was drawn into a blood bag (1% heparin, 50 I.E./mL). Blood was aliquoted into cavities of 96-deep-well plates at 290 μL and mixed with 10 μL compound solution or vehicle (30 sec at 1400 rpm on a shaker). Equilibration followed at room temperature, 250 rpm and for 30 min. The assay was started by adding 10 μL of substrate solution (20 μM pantethine in 1 mM DTT, 0.0025% Brij-35, 50 mM HEPES, pH7.5) to each well, except for some blank wells which received […] substrate buffer (1 mM DTT, 0.0025% Brij-35, 50 mM HEPES, pH7.5) only. Samples were thoroughly shaken (30 sec, 1400 rpm) and reaction was allowed to take place at room temperature, 250 rpm and for 5 min. The reaction was stopped by addition of a vanin tool inhibitor in excess (BI-1 total conc. 10 μM). Centrifugation of the plate followed at 4° C., 665 G for 10 min. Then the blood plasma samples (100 μL) were transferred into another 96-deep-well plate and proteins were precipitated (5 min on ice) by adding 100 μL of ice cold precipitation solution (1 μM labelled pantothenic acid (di-β-alanine-13C6,15N2 calcium salt, Sigma, #705837) in acetonitrile). Afterwards the plate was centrifuged (4° C., 3220 G, 10 min) and supernatants (50 μL) were collected into another 96-deep-well plate and mixed (10 sec, 1400 rpm) with 150 μL ice cold formic acid (0.1%, Carl Roth GmbH+Co.KG, #CP03.1). The formation of pantothenic acid is detected by RapidFire Mass Spectrometry. A TripleQuad 6500+ (ABSciex, Germany) was equipped with an LC-1290 system, a RapidFire autosampler (Agilent, Germany) and a C18 cartridge Type C 12 μL (Agilent Cat #G9526-80000). Mobile phase A was consisting of 0.09% formic acid and 0.01% trifluoroacetic acid in water and mobile phase B of 0.09% formic acid and 0.01% trifluoroacetic acid in acetonitrile/methanol/water=47.5/47.5/5.

Sequence of FLAG-tagged Vanin-1 (AA 22-493, T26I) (O95497 22-493 T26I): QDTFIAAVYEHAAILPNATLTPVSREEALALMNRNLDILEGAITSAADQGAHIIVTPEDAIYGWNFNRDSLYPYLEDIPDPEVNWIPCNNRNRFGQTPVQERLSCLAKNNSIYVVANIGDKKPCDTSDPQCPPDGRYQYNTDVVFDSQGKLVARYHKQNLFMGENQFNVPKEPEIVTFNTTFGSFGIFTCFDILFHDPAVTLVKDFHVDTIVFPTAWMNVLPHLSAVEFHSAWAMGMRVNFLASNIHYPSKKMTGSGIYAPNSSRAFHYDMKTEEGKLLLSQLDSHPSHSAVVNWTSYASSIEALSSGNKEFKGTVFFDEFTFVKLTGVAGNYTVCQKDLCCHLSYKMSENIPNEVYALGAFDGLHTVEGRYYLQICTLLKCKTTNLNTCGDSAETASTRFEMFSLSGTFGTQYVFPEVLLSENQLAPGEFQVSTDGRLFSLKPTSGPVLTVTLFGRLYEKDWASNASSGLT

SMILES	IC50 [1] [nM]	IC50 (Pantetheinase (vanin)) [nM]
CC(=O)N(C)[C@H]1CCN(C(=O)c2cnc3c(c2)CC(C)(c2ccc(Cl)cc2)N3)C1 (mixture of isomers) [Example 8.1, N-[(3S)-1-[2-(4-Chlorophenyl)-2-methyl-1H,2H,3H-pyrrolo[2,3-b]pyridine-5-carbonyl]pyrrolidin-3-yl]-N-methylacetamide]	0.2	4.3
CC(=O)N(C)[C@H]1CCN(C(=O)c2cnc3c(c2)CC(C)(C)N3)C1 [Example 1.1, N-[(3S)-1-{2,2-Dimethyl-1H,2H,3H-pyrrolo[2,3-b]pyridine-5-carbonyl}pyrrolidin-3-yl]-N-methylacetamide]	2.5	–
CC1(C)Cc2cc(C(=O)N3CC[C@H](N4CCCC4=O)C3)cnc2N1 [Example 1.2]	1.5	11.5
CC1(C)Cc2cc(C(=O)N3CC[C@H](N4CCOC4=O)C3)cnc2N1 [Example 1.3]	1.6	–
CC1(C)Cc2cc(C(=O)N3CCC4(CCOCC4)C3)cnc2N1 [Example 1.4]	4.9	–
CC1(C)Cc2cc(C(=O)N3CC4(CCOCC4)C3)cnc2N1 [Example 1.5]	10.4	–
CN(C(=O)C1CCC1)[C@H]1CCN(C(=O)c2cnc3c(c2)CC(C)(C)N3)C1 [Example 2.1, N-[(3S)-1-{2,2-Dimethyl-1H,2H,3H-pyrrolo[2,3-b]pyridine-5-carbonyl}pyrrolidin-3-yl]-N-methylcyclobutanecarboxamide]	0.9	2.5
CN(C(=O)C1(C#N)CC1)[C@H]1CCN(C(=O)c2cnc3c(c2)CC(C)(C)N3)C1 [Example 2.2]	1.1	9.5
CN(C(=O)C1(C)CCC1)[C@H]1CCN(C(=O)c2cnc3c(c2)CC(C)(C)N3)C1 [Example 2.3]	4.6	–
CN(C(=O)C1CC(F)(F)C1)[C@H]1CCN(C(=O)c2cnc3c(c2)CC(C)(C)N3)C1 [Example 2.4]	0.6	2.8
CN(C(=O)C1CC1)[C@H]1CCN(C(=O)c2cnc3c(c2)CC(C)(C)N3)C1 [Example 2.5]	2.1	–
CN(c1ncccn1)[C@H]1CCN(C(=O)c2cnc3c(c2)CC(C)(C)N3)C1 [Example 3.1, N-[(3S)-1-{2,2-Dimethyl-1H,2H,3H-pyrrolo[2,3-b]pyridine-5-carbonyl}pyrrolidin-3-yl]-N-methylpyrimidin-2-amine]	2.3	38
C[C@]1(c2cccc(F)c2)Cc2cc(C(=O)N3CC[C@H](N4CCOC4=O)C3)cnc2N1 [Example 4.1, 3-[(3S)-1-[(2R)-2-(3-Fluorophenyl)-2-methyl-1H,2H,3H-pyrrolo[2,3-b]pyridine-5-carbonyl]pyrrolidin-3-yl]-1,3-oxazolidin-2-one]	0.1	1.4
CC(=O)N(C)[C@H]1CCN(C(=O)c2cnc3c(c2)C[C@@](C)(c2cccc(F)c2)N3)C1 [Example 4.2]	1.7	–
CC(=O)N(C)[C@H]1CCN(C(=O)c2cnc3c(c2)C[C@](C)(c2cccc(F)c2)N3)C1 [Example 4.3]	0.1	1.4
C[C@]1(c2cccc(F)c2)Cc2cc(C(=O)N3CC[C@H](N4CCCC4=O)C3)cnc2N1 [Example 4.4]	0.1	2.1
C[C@]1(c2ccc(F)cc2)Cc2cc(C(=O)N3CCC4(CCOCC4)C3)cnc2N1 [Example 5.1, 2-[(2R)-2-(4-Fluorophenyl)-2-methyl-1H,2H,3H-pyrrolo[2,3-b]pyridine-5-carbonyl]-8-oxa-2-azaspiro[4.5]decane]	0.4	3.6
C[C@]1(c2ccc(F)cc2)Cc2cc(C(=O)N3CC[C@H](N4CCOC4=O)C3)cnc2N1 [Example 5.2]	0.1	1.5

SMILES	IC50 [1] [nM]	IC50 (Pantetheinase (vanin)) [nM]
CC(=O)N(C)[C@H]1CCN(C(=O)c2cnc3c(c2)C[C@@](C)(c2ccc(F)cc2)N3)C1 [Example 5.4]	87.1	–
C[C@]1(c2cccc(Cl)c2)Cc2cc(C(=O)N3CC[C@H](N4CCCC4=O)C3)cnc2N1 [Example 7.1, (3′S)-1′-[2-(3-Chlorophenyl)-2-methyl-1H,2H,3H-pyrrolo[2,3-b]pyridine-5-carbonyl]-[1,3′-bipyrrolidine]-2-one]	0.1	–
CC(=O)N(C)[C@H]1CCN(C(=O)c2cnc3c(c2)C[C@@](C)(c2ccc(Cl)cc2)N3)C1 [Example 9.2, N-[(3S)-1-[(2S)-2-(4-Chlorophenyl)-2-methyl-1H,2H,3H-pyrrolo[2,3-b]pyridine-5-carbonyl]pyrrolidin-3-yl]-N-methylacetamide]	1.4	–
CC(=O)N(C)[C@H]1CCN(C(=O)c2cnc3c(c2)C[C@@](C)(c2ccccc2)N3)C1 [Example 9.4]	25.9	–
CC(=O)N(C)[C@H]1CCN(C(=O)c2cnc3c(c2)C[C@](C)(c2ccc(C#N)cc2)N3)C1 [Example 10, N-[(3S)-1-[(2R)-2-(4-Cyanophenyl)-2-methyl-1H,2H,3H-pyrrolo[2,3-b]pyridine-5-carbonyl]pyrrolidin-3-yl]-N-methylacetamide]	0.2	–
CC1(C)CCc2cc(C(=O)N3CCC4(CCOCC4)C3)cnc2N1 [Example 11.1, 2-(7,7-Dimethyl-5,6,7,8-tetrahydro-1,8-naphthyridine-3-carbonyl)-8-oxa-2-azaspiro[4.5]decane]	1.7	–
CC1(C)CCc2cc(C(=O)N3CC[C@H](N4CCOC4=O)C3)cnc2N1 [Example 11.5]	4.3	–
CN(C(=O)C1(C#N)CC1)[C@H]1CCN(C(=O)c2cnc3c(c2)CCC(C)(C)N3)C1 [Example 11.7]	4.9	–
CC(=O)N(C)[C@H]1CCN(C(=O)c2cnc3c(c2)CCC(c2ccccc2)N3)C1 (stereo partly drawn) [Example 12.1, N-Methyl-N-[(3S)-1-(7-phenyl-5,6,7,8-tetrahydro-1,8-naphthyridine-3-carbonyl)pyrrolidin-3-yl]acetamide]	20.3	–
CC(=O)N(C)[C@H]1CCN(C(=O)c2cnc3c(c2)CCCCN3)C1 [Example 12.3]	0.4	–
CC(=O)N(C)[C@H]1CCN(C(=O)c2cnc3c(c2)CCCC(C)(C)N3)C1 [Example 12.4]	2.5	–
CC1(C)CCCc2cc(C(=O)N3CC[C@H](N4CCCC4=O)C3)cnc2N1 [Example 12.5]	1.5	–
CN(C(=O)C1CC1)[C@H]1CCN(C(=O)c2cnc3c(c2)CCCC(C)(C)N3)C1 [Example 12.6]	2.7	–
CC1(C)CCCc2cc(C(=O)N3CC[C@H](N4CCOC4=O)C3)cnc2N1 [Example 12.7]	1.4	–
CN(C(=O)C1CCC1)[C@H]1CCN(C(=O)c2cnc3c(c2)CC[C@](C)(c2cncnc2)N3)C1 [Example 13.1, N-methyl-N-[(3S)-1-[(7R)-7-Methyl-7-(pyrimidin-5-yl)-5,6,7,8-tetrahydro-1,8-naphthyridine-3-carbonyl]pyrrolidin-3-yl]cyclobutanecarboxamide]	0.2	–
CN(C(=O)C1CCC1)[C@H]1CCN(C(=O)c2cnc3c(c2)CC[C@@](C)(c2cncnc2)N3)C1 [Example 13.2, N-methyl-N-[(3S)-1-[(7S)-7-Methyl-7-(pyrimidin-5-yl)-5,6,7,8-tetrahydro-1,8-naphthyridine-3-carbonyl]pyrrolidin-3-yl]cyclobutanecarboxamide]	23.5	–
CN(C(=O)C1CC1)[C@H]1CCN(C(=O)c2cnc3c(c2)CC[C@](C)(c2cncnc2)N3)C1 [Example 13.3]	0.3	–
CN(C(=O)C1CC1)[C@H]1CCN(C(=O)c2cnc3c(c2)CC[C@@](C)(c2cncnc2)N3)C1 [Example 13.4]	11.5	–
